Measured values as given in US9056922B2, “Chimeric relaxin polypeptides comprising an A and B chain derived from different relaxin family peptides” (HOWARD FLOREY INSTITUTE OF EX[…] MEDICINE, priority 2007, dated 2015).

Legend:
LGR7 receptor = target: T1, LGR7 receptor (Homo sapiens, UniProt Q9HBX9); assay: Whole cell [125I]-labelled H2 relaxin competition binding assay
T1 construct: expressed in transfected cells; host or cells: HEK293T
T1 sequence (Q9HBX9 1-757): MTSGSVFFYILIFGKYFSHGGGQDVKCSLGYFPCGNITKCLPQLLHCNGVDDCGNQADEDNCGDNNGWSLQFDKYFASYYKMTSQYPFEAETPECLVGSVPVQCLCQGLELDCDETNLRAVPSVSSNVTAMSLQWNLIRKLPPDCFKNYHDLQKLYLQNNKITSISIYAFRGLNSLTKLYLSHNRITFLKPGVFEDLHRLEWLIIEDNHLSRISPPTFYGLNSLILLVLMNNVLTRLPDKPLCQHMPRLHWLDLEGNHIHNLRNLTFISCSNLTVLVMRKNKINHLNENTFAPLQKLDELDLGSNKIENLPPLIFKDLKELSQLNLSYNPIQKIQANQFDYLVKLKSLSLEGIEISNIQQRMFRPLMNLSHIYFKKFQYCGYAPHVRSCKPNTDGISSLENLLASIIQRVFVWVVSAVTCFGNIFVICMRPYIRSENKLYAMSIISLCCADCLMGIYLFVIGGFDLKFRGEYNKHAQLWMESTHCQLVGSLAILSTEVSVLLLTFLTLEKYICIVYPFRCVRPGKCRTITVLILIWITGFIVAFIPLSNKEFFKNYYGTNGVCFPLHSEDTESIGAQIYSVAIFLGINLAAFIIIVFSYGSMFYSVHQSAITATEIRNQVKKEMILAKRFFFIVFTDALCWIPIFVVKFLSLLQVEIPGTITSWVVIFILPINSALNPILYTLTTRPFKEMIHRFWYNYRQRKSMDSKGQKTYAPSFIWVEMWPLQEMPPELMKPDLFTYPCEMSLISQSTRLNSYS
Procedure: Briefly, HEK293T cells were plated out into 24-well plates (450,000 cells per well) or 48-well plates (225,000 cells per well), and transfected with pcDNA3.1/zeo plasmid containing the receptor of interest the following day as described above in Example 2. […] Non-specific binding was determined by addition of excess unlabelled relaxin (500 nM). Data were analysed using GraphPad Prism.

LGR8 (RXFP2) receptor = LGR8 (RXFP2) receptor (Homo sapiens, UniProt Q8WXD0); assay: cell-based
Sequence of LGR8 (RXFP2) receptor (Q8WXD0 whole entry): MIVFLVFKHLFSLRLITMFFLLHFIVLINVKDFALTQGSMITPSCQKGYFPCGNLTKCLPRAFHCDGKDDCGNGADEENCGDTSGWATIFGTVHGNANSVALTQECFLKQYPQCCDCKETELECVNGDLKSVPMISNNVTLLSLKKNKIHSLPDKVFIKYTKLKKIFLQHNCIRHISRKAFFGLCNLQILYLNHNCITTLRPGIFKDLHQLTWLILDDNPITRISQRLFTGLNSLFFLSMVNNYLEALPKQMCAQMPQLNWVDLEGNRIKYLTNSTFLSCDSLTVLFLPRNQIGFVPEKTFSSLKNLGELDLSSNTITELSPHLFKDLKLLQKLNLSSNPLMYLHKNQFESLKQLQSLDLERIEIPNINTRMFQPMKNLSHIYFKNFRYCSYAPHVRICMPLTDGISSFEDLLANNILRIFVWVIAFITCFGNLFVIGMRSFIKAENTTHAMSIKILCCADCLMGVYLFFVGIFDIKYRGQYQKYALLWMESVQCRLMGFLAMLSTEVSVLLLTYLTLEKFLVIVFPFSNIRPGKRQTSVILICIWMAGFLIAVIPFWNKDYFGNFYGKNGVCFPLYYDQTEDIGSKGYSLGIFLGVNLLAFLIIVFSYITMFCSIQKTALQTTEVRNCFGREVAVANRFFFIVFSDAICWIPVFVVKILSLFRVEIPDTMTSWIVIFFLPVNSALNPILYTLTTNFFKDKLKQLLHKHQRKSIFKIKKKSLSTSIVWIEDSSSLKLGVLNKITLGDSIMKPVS
Text: Data are presented as the mean±S.E.M. of at least 1 experiment (number performed shown in parentheses in Table 1) performed in triplicate.

LGR7 (RXFP1) receptor = target: T2, LGR7 (RXFP1) receptor (Homo sapiens, UniProt Q9HBX9); assay: cAMP reporter gene assay (pCRE-β-galactosidase) in LGR7-expressing cells; assay type: cell-based
T2 construct: expressed in transfected cells; host or cells: HEK-293T
T2 sequence (Q9HBX9 1-757): T1 sequence (Q9HBX9 1-757)
Procedure: In the present study the inventors investigated the ability of chimeric polypeptides generated herein (see Example 1) to stimulate cAMP production in cells expressing either the LGR7 or LGR8 receptor.
Receptor cAMP signaling was assessed using a cAMP reporter gene assay. […] Transfected cells were incubated with increasing concentrations of peptides for 6 hrs after which the media was aspirated and the cells frozen at −80° C. overnight. The amount of cAMP-driven β-galactosidase expression in each well was determined by incubating the cells in 25 μl of lysis buffer (10 mM Na2HPO4, pH 8.0, 0.2 mM MgSO4, 0.01 mM MnCl2) for 10 minutes, 100 μl of assay buffer (100 mM Na2HPO4, pH 8.0, 2 mM MgSO4, 0.1 mM MnCl2, 0.5% Triton X-100, 40 mM B-mercaptoethanol) for a further 10 minutes before 25 μL of enzyme substrate solution (1 mg/ml chlorophenol red B-D galactopyranoside (Roche) in 100 mM Na2HPO4, pH 8.0, 2 mM MgSO4, 0.1 mM MnCl2) was added to each well and the plate incubated for 3 h or overnight. The absorbance of each well was determined at 570 nm using a Ceres UV900C plate reader (Bio-Tek Instruments, Vermont, USA).
All experiments were repeated at least three times with triplicate determinations within each assay.
Data are presented as the mean±S.E.M. of […] (number performed shown in parentheses in Table 1) performed in triplicate.

Compound | Ki (LGR7 receptor) [nM] | EC50 (LGR8 (RXFP2) receptor) [nM] | EC50 (LGR7 (RXFP1) receptor) [nM]
CC[C@H](C)[C@@H]1NC(=O)[C@H](C)NC(=O)[C@H]([C@@H](C)CC)NC(=O)[C@H](CCC(N)=O)NC(=O)[C@H](C)NC(=O)[C@H](CCCNC(=N)N)NC(=O)[C@H](C(C)C)NC(=O)[C@H](CC(C)C)NC(=O)[C@H](CCC(=O)O)NC(=O)[C@H](CCCNC(=N)N)NC(=O)CNC(=O)[C@@H](NC(=O)[C@H](CC(C)C)NC(=O)[C@H](CCCCN)NC(=O)[C@@H](NC(=O)[C@@H](NC(=O)[C@H](CCC(=O)O)NC(=O)[C@H](CCC(=O)O)NC(=O)[C@H](CCSC)NC(=O)[C@H](Cc2c[nH]c3ccccc23)NC(=O)[C@H](CO)NC(=O)[C@@H](N)CC(=O)O)C(C)C)[C@@H](C)CC)CSSC[C@@H]2NC(=O)[C@@H](NC(=O)[C@H](CO)NC(=O)[C@H](CO)NC(=O)[C@H](CO)NC(=O)[C@H](CC(C)C)NC(=O)CNC(=O)[C@H](C)NC(=O)[C@H](CC(C)C)NC(=O)[C@@H](NC(=O)[C@@H](N)CC(=O)O)C(C)C)CSSC[C@H](NC(=O)CNC(=O)[C@H](Cc3c[nH]c4ccccc34)NC(=O)[C@H](CCCCN)NC2=O)C(=O)N[C@@H](CO)C(=O)N[C@@H](CCCCN)C(=O)N[C@@H](CO)C(=O)N[C@@H](CCC(=O)O)C(=O)N[C@@H]([C@@H](C)CC)C(=O)N[C@@H](CO)C(=O)N[C@@H](CO)C(=O)N[C@@H](CC(C)C)C(=O)N[C@H](C(=O)O)CSSC[C@@H](C(=O)NCC(=O)N[C@@H](CCSC)C(=O)N[C@@H](CO)C(=O)N[C@H](C(=O)N[C@@H](Cc2c[nH]c3ccccc23)C(=O)N[C@@H](CO)C(=O)O)[C@@H](C)O)NC1=O [H2-B/H3-A] | 158 | 4570 | 7.94
CC[C@H](C)[C@@H]1NC(=O)[C@H](C)NC(=O)[C@H]([C@@H](C)CC)NC(=O)[C@H](CCC(N)=O)NC(=O)[C@H](C)NC(=O)[C@H](CCCNC(=N)N)NC(=O)[C@H](C(C)C)NC(=O)[C@H](CC(C)C)NC(=O)[C@H](CCC(=O)O)NC(=O)[C@H](CCCNC(=N)N)NC(=O)CNC(=O)[C@@H](NC(=O)[C@H](CC(C)C)NC(=O)[C@H](CCCCN)NC(=O)[C@@H](NC(=O)[C@@H](NC(=O)[C@H](CCC(=O)O)NC(=O)[C@H](CCC(=O)O)NC(=O)[C@H](CCSC)NC(=O)[C@H](Cc2c[nH]c3ccccc23)NC(=O)[C@H](CO)NC(=O)[C@@H](N)CC(=O)O)C(C)C)[C@@H](C)CC)CSSC[C@@H]2NC(=O)[C@@H](NC(=O)[C@H](Cc3ccc(O)cc3)NC(=O)[C@H](CCCNC(=N)N)NC(=O)[C@H](C)NC(=O)[C@@H]3CCCN3C(=O)[C@H](CC(N)=O)NC(=O)[C@@H](NC(=O)[C@H](C)NC(=O)[C@H](C)NC(=O)[C@H](C)N)[C@@H](C)O)CSSC[C@H](NC(=O)CNC(=O)[C@H](CO)NC(=O)[C@H](CC(C)C)NC2=O)C(=O)N[C@@H]([C@@H](C)O)C(=O)N[C@@H](CCC(N)=O)C(=O)N[C@@H](CCC(N)=O)C(=O)N[C@@H](CC(=O)O)C(=O)N[C@@H](CC(C)C)C(=O)N[C@@H](CC(C)C)C(=O)N[C@@H]([C@@H](C)O)C(=O)N[C@@H](CC(C)C)C(=O)N[C@H](C(=O)N2CCC[C@H]2C(=O)N[C@@H](Cc2ccc(O)cc2)C(=O)O)CSSC[C@@H](C(=O)NCC(=O)N[C@@H](CCSC)C(=O)N[C@@H](CO)C(=O)N[C@H](C(=O)N[C@@H](Cc2c[nH]c3ccccc23)C(=O)N[C@@H](CO)C(=O)O)[C@@H](C)O)NC1=O [H2-B/INSL3-A] | 617 | < 1000 | > 1000
